EP0513849B1, “Method of preparing transgenic Zea mays plants regenerated from protoplasts or protoplast-derived cells” (Novartis AG, priority 1987, dated 1988)

Legend:
[1] = system: Zea mays protoplasts; assay: Colony formation from cultured Zea mays protoplasts in the presence of plant growth regulators (auxins) (Example 21); assay type: cell-based; conditions: 0.54 million protoplasts per ml, counted after 3 weeks
Protocol: (§1) The plates containing the protoplasts in agarose are placed in the dark at 26 °C. Within 14 days, cell colonies arise from the protoplasts. The agarose containing the colonies is transferred to the surface of a 9 cm diameter petri dish containing 30 ml of N6 medium with 2 mg/liter 2,4-D, solidified with 0.24% w/v Gelrite^R (2N6). The colonies are cultured to give callus. The callus is cultured further in the dark at 26 °C and callus pieces subcultured every 2 weeks onto fresh N6 medium containing 2 mg/liter 2,4-D (solidified with 0.24% w/v Gelrite^R).
Protoplasts are resuspended in the last step of example 3 in 6/7 strength KMC solution at 5 million per ml.
Aliquots of protoplast suspension are placed in 6cm diameter petri dishes at room temperature. 2 ml of KM medium containing 1.2% w/v SeaPlaque^R agarose, and 2,4-D, Picloram, Dicamba or para-Chlorophenoxyacetic acid (pCPA) to give the correct plant growth regulator concentrations is added. The final protoplast density used is 0.54 million per ml. The agarose and protoplasts are mixed well, and the medium allowed to gel.
The dishes are cultured as described in example 10. After a period of 3 weeks, macroscopic colonies arising in the dishes are counted.

[2] = system: Zea mays protoplasts; assay: Colony formation from Zea mays protoplasts with DMSO and O-acetyl-salicylic acid in the presence of 2,4-D (Example 20); assay type: cell-based; conditions: for number of formed colonies: no additions, 0.75 million protoplasts per ml, counted after 3 weeks
Protocol: as §1
Protoplasts are resuspended in the last step of example 3 in 6/7 strength KMC solution at 7.5 million per ml. The O-acetyl-salicylic acid is dissolved at 2.5 mg/ml in KM medium. The solution is filter sterilized. The O-acetyl-salicylic acid is then added to the culture medium immediately before use. Aliquots of protoplast suspension are placed in 6 cm diameter petri dishes at room temperature. 3 ml of KM medium containing 1.2% w/v SeaPlaque^R agarose, 2,4-D and O-acetyl salicylic acid is added so as to give the correct 2,4-D and O-acetyl-salicylic acid concentrations and a protoplast density of 0.5 million per ml. The agarose and protoplasts are mixed well, and the medium allowed to gel.
The protoplasts are prepared and plated at 0.75 million per ml as described in example 18, using 1 ml of medium per 3.5 cm diameter petri dish. O-acetyl-salicylic acid is included in the medium. The O-acetyl-salicylic acid is dissolved in DMSO and then added to the medium before plating of the protoplasts. To obtain a solution in DMSO, 1 g of O-acetyl-salicylic acid is dissolved in 10 ml DMSO, and added to 90 ml distilled water. The solution is then filter sterilized before use.
The dishes are cultured as described in example 10. After a period of 3 weeks, macroscopic colonies arising in the dishes are counted. […]

[3] = plant growth regulator concentration 0.1 mg/liter
[4] = plant growth regulator concentration 1 mg/liter
[5] = plant growth regulator concentration 10 mg/liter

| Compound | number of colonies formed [1, 3] | number of colonies formed [1, 4] | number of colonies formed [1, 5] | colony forming efficiency ([2]; DMSO alone, 1% v/v) | effect on the stimulatory activity of O-acetyl-salicylic acid ([2]; O-acetyl-salicylic acid dissolved in DMSO) | number of formed colonies ([2]; 2,4-D 0.1 mg/liter) | number of formed colonies ([2]; 2,4-D 0.3 mg/liter) | number of formed colonies ([2]; 2,4-D 1.0 mg/liter) |
| --- | --- | --- | --- | --- | --- | --- | --- | --- |
| O=C(O)COc1ccc(Cl)cc1 [pCPA, para-chlorophenoxyacetic acid] | 52 | 0 | 0 | – | – | – | – | – |
| C[S+](C)[O-] [DMSO] | – | – | – | no significant increase or decrease | potentiates the stimulatory activity of the O-acetyl-salicylic acid | – | – | – |
| COc1c(Cl)ccc(Cl)c1C(=O)O [dicamba, 3,6-dichloro-2-methoxy benzoic acid] | 62 | 288 | 0 | – | – | – | – | – |
| O=C(O)COc1ccc(Cl)cc1Cl [2,4-D, 2,4-dichlorophenoxyacetic acid] | 140 | 0 | 0 | – | – | 1 | 2 | 45 |
